From patent publication US12161116B1, “Ethyl-2-{[(2,4-dichlorobenzoyl carbamothioyl]amino}-4,5,6,7-tetrahydro-1-benzothiophene-3-carboxylate as an eco-friendly insecticidal agent against Spodoptera littoralis (boisd.)” (priority 2023, dated 2024)
Converted amounts (≈) assume the structure as drawn. Where two headings read alike, the source gives them in different places.

System: Spodoptera littoralis
Assay: Insecticidal bioassay screening (castor leaf dip) on second and fourth instar larvae
Format: in vivo
Conditions: for Toxicity index %: 72 hrs, Diflubenzuron's LC50 / the compound's LC50 × 100; for LC90 (mg/L) at 95%: after 72 hrs of treatment, treated castor leaves; for LC50: Spodoptera littoralis, in Gossypium hirsutum, foliar, 72 h
Method: Five concentrations (200, 100, 50, 25, 12.5 ppm) were designed for this synthetic compound and the reference Diflubenzuron compound as the dynamic ingredients based on mg/L via diluting the commercial formulation.
In this experiment, castor leaves are immersed in each of the previously prepared concentrations of the components for 10 seconds and then left to dry for 60 minutes. Larvae of the second and fourth instars of each checked strain are prepared with treated leaves in gauze-covered glass containers for 72 hrs. An untreated control is made in which leaves are dipped in triton x-100 and distilled water only. Then the preserved leaves were removed & fresh, untreated leaves were provided for 72 hours. Three replicates (10 larvae each) were checked for each concentration. Daily inspection was carried out for all treatments and mortality percentages were recorded 3 days (72 hours) after treatment. The average mortality percentage was corrected employing Abbott's formula. The corrected mortality rate for each of the previously synthesized compounds is statistically calculated according to Finney (1970). Through this rate, the corresponding concentration test lines (LDP lines) are assessed.

[1] = read-out: LC50 (mg/L) at 95%, 2nd instar larvae, after 72 hrs of treatment, treated castor leaves
[2] = read-out: LC50 (mg/L) at 95%, 4th instar larvae, after 72 hrs of treatment, treated castor leaves

Compound	Toxicity index % (2nd instar larvae) [%]	LC90 (mg/L) at 95% (2nd instar larvae) [mg/L]	Toxicity index % (4th instar larvae) [%]	LC90 (mg/L) at 95% (4th instar larvae) [mg/L]	LC50 [1] [mg/L]	LC50 [2] [mg/L]
O=C(NC(=O)c1c(F)cccc1F)Nc1ccc(Cl)cc1 [Diflubenzuron]	100	520.0 (≈ 1670 µM)	100	1540.5 (≈ 4960 µM)	45.2 (≈ 145 µM)	144 (≈ 464 µM)
CCOC(=O)c1c(NC(=S)NC(=O)c2ccc(Cl)cc2Cl)sc2c1CCCC2 [Ethyl-2-{[(2,4-dichlorobenzoyl)carbamothioyl]amino}-4,5,6,7-tetrahydro-1-benzothiophene-3-carboxylate]					~270 (≈ 591 µM)	~631 (≈ 1380 µM)
